From US9855268B2, “Triazolo[4,5-d]pyrimidine derivatives” (Merck Patent GmbH, priority 2013, dated 2018)
Values belong to the compound of their own block, whether it stands above or below them.

Assays:
GCN2 [1] = target: T1, GCN2 (Homo sapiens, UniProt Q9P2K8); assay: GCN2 enzyme assay (TR-FRET Lanthascreen, GFP-eIF2alpha phosphorylation); type: biochemical; details: 10 μM ATP, 80 nM GFP-eIF2a, 30 nM GCN2
Method in brief: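 Phosphorylation of GFP-eIF2alpha (80 nM) by GCN2 run at room temperature with 10 μM ATP. After EDTA quench, product quantified by Lanthascreen TR-FRET (antibody–GFP complex, 340 nm excitation).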
Target sequence in this assay (Q9P2K8 whole entry, species assumed): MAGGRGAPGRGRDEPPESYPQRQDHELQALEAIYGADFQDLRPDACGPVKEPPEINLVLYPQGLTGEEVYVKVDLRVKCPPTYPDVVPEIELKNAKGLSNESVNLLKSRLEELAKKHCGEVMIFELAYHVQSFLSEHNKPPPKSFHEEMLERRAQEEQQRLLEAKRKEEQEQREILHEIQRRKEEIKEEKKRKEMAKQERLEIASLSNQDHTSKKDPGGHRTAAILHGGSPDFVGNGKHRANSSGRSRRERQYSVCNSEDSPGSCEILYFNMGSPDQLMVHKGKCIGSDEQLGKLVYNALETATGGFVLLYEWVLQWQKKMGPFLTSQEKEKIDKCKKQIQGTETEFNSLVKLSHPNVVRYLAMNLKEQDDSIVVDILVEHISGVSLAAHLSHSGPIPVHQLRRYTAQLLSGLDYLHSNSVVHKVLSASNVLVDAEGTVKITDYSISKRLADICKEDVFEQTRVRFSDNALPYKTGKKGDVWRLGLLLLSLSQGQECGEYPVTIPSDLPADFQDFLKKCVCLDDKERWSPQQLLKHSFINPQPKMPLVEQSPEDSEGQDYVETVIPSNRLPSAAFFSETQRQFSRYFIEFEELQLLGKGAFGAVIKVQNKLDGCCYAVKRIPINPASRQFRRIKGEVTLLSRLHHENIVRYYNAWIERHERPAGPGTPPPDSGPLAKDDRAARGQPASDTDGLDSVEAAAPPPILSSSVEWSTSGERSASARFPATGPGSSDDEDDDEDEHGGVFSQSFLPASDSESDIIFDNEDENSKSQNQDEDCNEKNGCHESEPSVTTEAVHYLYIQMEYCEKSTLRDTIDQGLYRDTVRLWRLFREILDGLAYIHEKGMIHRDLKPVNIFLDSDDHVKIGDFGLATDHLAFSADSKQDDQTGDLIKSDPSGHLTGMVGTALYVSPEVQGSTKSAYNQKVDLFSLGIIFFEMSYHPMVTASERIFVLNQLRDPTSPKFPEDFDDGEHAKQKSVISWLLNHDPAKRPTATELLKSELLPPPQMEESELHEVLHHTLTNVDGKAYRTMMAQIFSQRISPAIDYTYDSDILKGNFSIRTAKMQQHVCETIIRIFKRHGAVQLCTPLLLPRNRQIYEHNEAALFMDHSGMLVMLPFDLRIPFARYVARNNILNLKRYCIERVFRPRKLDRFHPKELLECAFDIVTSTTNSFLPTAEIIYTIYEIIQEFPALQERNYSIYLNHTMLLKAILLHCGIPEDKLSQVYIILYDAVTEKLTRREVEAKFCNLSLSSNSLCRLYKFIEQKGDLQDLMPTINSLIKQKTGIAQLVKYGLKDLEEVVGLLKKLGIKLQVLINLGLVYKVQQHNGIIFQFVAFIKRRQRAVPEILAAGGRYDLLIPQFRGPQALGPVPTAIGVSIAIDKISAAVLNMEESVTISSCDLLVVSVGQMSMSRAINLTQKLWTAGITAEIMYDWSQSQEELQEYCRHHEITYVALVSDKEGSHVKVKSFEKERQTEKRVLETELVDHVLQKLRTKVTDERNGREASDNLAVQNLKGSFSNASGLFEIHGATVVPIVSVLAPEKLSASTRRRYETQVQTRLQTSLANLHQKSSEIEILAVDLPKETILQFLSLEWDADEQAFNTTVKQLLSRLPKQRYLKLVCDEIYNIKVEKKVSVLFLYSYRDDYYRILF

GSK3α(h) = GSK3α(h) (Homo sapiens, UniProt P49840); assay: GSK3α radiometric kinase assay (33P-ATP, phospho GS2 peptide); type: biochemical; details: read-out: IC50 GSK3α (enzyme assay)
Sequence of GSK3α(h) (P49840 whole entry): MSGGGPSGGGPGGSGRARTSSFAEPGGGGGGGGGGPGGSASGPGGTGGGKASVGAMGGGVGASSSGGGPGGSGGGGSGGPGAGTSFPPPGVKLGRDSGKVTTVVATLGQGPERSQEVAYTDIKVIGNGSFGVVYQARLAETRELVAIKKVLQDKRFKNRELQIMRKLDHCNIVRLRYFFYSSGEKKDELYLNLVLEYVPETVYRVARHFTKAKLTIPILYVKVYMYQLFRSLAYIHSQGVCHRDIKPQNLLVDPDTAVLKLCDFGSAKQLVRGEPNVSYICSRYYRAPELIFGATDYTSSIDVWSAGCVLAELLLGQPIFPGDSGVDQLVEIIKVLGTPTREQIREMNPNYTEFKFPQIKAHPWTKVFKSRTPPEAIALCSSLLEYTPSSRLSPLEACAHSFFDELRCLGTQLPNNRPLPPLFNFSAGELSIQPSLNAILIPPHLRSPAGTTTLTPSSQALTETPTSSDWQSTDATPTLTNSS
Method in brief: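 Human GSK3α incubated with 20 μM phospho-GS2 peptide in 8 mM MOPS pH 7,0, 10 mM Mg-acetate and [γ-33P]ATP (concentration as required), started with MgATP. After 40 minutes at room temperature, stopped with phosphoric acid; 33P incorporation measured by filtermat spotting and scintillation counting.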

GSK3β(h) = GSK3β(h) (Homo sapiens, UniProt P49841); assay: GSK3β radiometric kinase assay (33P-ATP, phospho GS2 peptide); type: biochemical; details: read-out: IC50 GSK3β (enzyme assay)
Sequence of GSK3β(h) (P49841 whole entry): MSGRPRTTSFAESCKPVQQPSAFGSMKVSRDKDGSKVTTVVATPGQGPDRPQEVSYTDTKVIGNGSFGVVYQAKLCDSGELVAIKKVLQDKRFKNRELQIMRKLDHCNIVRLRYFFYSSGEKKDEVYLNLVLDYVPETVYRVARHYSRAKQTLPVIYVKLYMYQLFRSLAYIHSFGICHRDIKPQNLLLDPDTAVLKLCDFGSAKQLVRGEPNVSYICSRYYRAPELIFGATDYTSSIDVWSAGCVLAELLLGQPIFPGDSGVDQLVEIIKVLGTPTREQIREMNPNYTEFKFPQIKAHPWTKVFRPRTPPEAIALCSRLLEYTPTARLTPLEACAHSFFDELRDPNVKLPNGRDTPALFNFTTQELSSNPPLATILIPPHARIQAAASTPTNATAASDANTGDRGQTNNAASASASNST
Protocol: GSK3β(h) is incubated with 8 mM MOPS pH 7,0, 0,2 mM EDTA, 20 μM
[…](p)EDEEE (phosphor GS2 peptide), 10 mM Mg-acetate and [gamma-33P-ATP](specific activity approx. 500 cpm/Pmol, concentration as required). The reaction is initiated by the addition of the MgATP. After incubation for 40 minutes at the room temperature, the Reaction is stopped by the addition of 3% phosphoric acid solution. 10 μL of reaction is then spotted onto a P30 filtermat and washed three times for 5 minutes in 50 mM phosphoric acid and once in methanol prior to drying and scintillation counting.

GCN2 [2] = target: T1, GCN2; assay: Cellular assay of GCN2 activity (phospho-eIF2alpha immunocytochemistry after tryptophanol); type: cell-based; set-up: endogenous in cells; host or cells: U2OS; details: Human U2OS cells, 2 h compound, 600 μM tryptophanol 30 min
Method in brief: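 Readout in human U2OS cells: compound pretreatment 2 h, then tryptophanol (600 μM final) for 30 min to trigger GCN2 signalling. Fixed, permeabilised cells quantified by immunocytochemistry for phosphorylation, normalised to DMSO controls as % effect; IC50 from concentration-response.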
Target sequence in this assay (Q9P2K8 whole entry): as the sequence (Q9P2K8 whole entry, species assumed) above

SMILES: Cc1ccc2cc(-n3nnc4cnc(N[C@@H]5CCC[C@@H](C(N)=O)C5)nc43)ccc2n1 (relative stereo) [A192, (trans)-3-[3-(2-methyl-quinolin-6-yl)-3H-[1,2,3]triazolo[4,5-d]pyrimidin-5-ylamino]-cyclohexanecarboxylic acid amide]
IC50 (GCN2 [1]): < 1000 nM
IC50 (GSK3α(h)): < 1000 nM
IC50 (GSK3β(h)): < 1000 nM
IC50 (GCN2 [2]): 5000 to 10000 nM

SMILES: Cc1ccc2cc(-n3nnc4cnc(N[C@@H]5CC[C@@H](C(N)=O)C5)nc43)ccc2n1 [A187, (1R,3R)-3-[3-(2-methyl-quinolin-6-yl)-3H-[1,2,3]triazolo[4,5-d]-pyrimidin-5-ylamino]-cyclopentanecarboxylic acid amide]
IC50 (GCN2 [1]): < 1000 nM
IC50 (GSK3α(h)): < 1000 nM
IC50 (GSK3β(h)): < 1000 nM
IC50 (GCN2 [2]): < 1000 nM

SMILES: OCCn1cc(-c2ccc(-n3nnc4cnc(N[C@@H]5CC[C@@H](O)C5)nc43)cc2)cn1 [A259, (1R,3R)-3-(3-{4-[1-(2-hydroxy-ethyl)-1H-pyrazol-4-yl]-phenyl}-3H-[1,2,3]triazolo[4,5-d]pyrimidin-5-ylamino)-cyclopentanol]
IC50 (GCN2 [1]): < 1000 nM
IC50 (GSK3α(h)): < 1000 nM
IC50 (GSK3β(h)): < 1000 nM
IC50 (GCN2 [2]): 1000 to 5000 nM

SMILES: COCCn1cc(-c2ccc(-n3nnc4cnc(N[C@@H]5CC[C@@H](C(N)=O)C5)nc43)cn2)cn1 [A224, (1R,3R)-3-(3-{6-[1-(2-methoxy-ethyl)-1H-pyrazol-4-yl]-pyridin-3-yl}-3H-[1,2,3]triazolo[4,5-d]pyrimidin-5-ylamino)-cyclopentanecarboxylic acid amide]
IC50 (GCN2 [1]): < 1000 nM
IC50 (GSK3α(h)): < 1000 nM
IC50 (GSK3β(h)): < 1000 nM
IC50 (GCN2 [2]): 5000 to 10000 nM

SMILES: COCCn1cc(-c2ccc(-n3nnc4cnc(N[C@@H]5CC[C@@H](C(N)=O)C5)nc43)cc2)cn1 [A218, (1R,3R)-3-(3-{4-[1-(2-methoxy-ethyl)-1H-pyrazol-4-yl]-phenyl}-3H-[1,2,3]triazolo[4,5-d]pyrimidin-5-ylamino)-cyclopentanecarboxylic acid amide]
IC50 (GCN2 [1]): < 1000 nM
IC50 (GSK3α(h)): < 1000 nM
IC50 (GSK3β(h)): < 1000 nM
IC50 (GCN2 [2]): < 1000 nM

Results, then the compound that gave them:

IC50 (GCN2 [1]): < 1000 nM
IC50 (GSK3α(h)): < 1000 nM
IC50 (GSK3β(h)): 1000 to 5000 nM
IC50 (GCN2 [2]): 1000 to 5000 nM
SMILES: COc1ccc(-n2nnc3cnc(N[C@@H]4CC[C@H](CN)C4)nc32)cc1 [A122, ((1R,3S)-3-aminomethyl-cyclopentyl)-[3-(4-methoxy-phenyl)-3H-[1,2,3]triazolo[4,5-d]pyrimidin-5-yl]-amine]

IC50 (GCN2 [1]): < 1000 nM
IC50 (GSK3α(h)): < 1000 nM
IC50 (GSK3β(h)): < 1000 nM
IC50 (GCN2 [2]): 5000 to 10000 nM
SMILES: NC(=O)[C@@H]1CC[C@@H](Nc2ncc3nnn(-c4ccc(OCCO)cc4)c3n2)C1 [A153, (1R,3R)-3-{3-[4-(2-hydroxy-ethoxy)-phenyl]-3H-[1,2,3]triazolo[4,5-d]pyrimidin-5-ylamino}-cyclopentanecarboxylic acid amide]

IC50 (GCN2 [1]): < 1000 nM
IC50 (GSK3α(h)): < 1000 nM
IC50 (GSK3β(h)): < 1000 nM
IC50 (GCN2 [2]): 5000 to 10000 nM
SMILES: CC(C)Oc1ccc(-n2nnc3cnc(N[C@@H]4CC[C@@H](C(N)=O)C4)nc32)cc1 [A164, (1R,3R)-3-[3-(4-isopropoxy-phenyl)-3H-[1,2,3]triazolo[4,5-d]pyrimidin-5-ylamino]-cyclopentanecarboxylic acid amide]

IC50 (GCN2 [1]): < 1000 nM
IC50 (GSK3α(h)): < 1000 nM
IC50 (GSK3β(h)): < 1000 nM
IC50 (GCN2 [2]): < 1000 nM
SMILES: COc1ccc(-n2nnc3cnc(N[C@@H]4CC[C@@H](C(=O)NCCN5CCN(C)CC5)C4)nc32)cc1 [A244, (1R,3R)-3-[3-(4-methoxy-phenyl)-3H-[1,2,3]triazolo[4,5-d]pyrimidin-5-ylamino]-cyclopentanecarboxylic acid [2-(4-methyl-piperazin-1-yl)-ethyl]-amide]

IC50 (GCN2 [1]): < 1000 nM
IC50 (GSK3α(h)): < 1000 nM
IC50 (GSK3β(h)): < 1000 nM
IC50 (GCN2 [2]): 1000 to 5000 nM
SMILES: NC(=O)[C@@H]1CC[C@@H](Nc2ncc3nnn(-c4ccc(OC[C@@H](O)C(F)(F)F)cc4)c3n2)C1 [A155, (1R,3R)-3-{3-[4-((R)-3,3,3-trifluoro-2-hydroxy-propoxy)-phenyl]-3H-[1,2,3]triazolo[4,5-d]pyrimidin-5-ylamino}-cyclopentanecarboxylic acid amide]

IC50 (GCN2 [1]): < 1000 nM
IC50 (GSK3α(h)): < 1000 nM
IC50 (GSK3β(h)): < 1000 nM
IC50 (GCN2 [2]): 1000 to 5000 nM
SMILES: CCOc1ccc(-n2nnc3cnc(N[C@@H]4CC[C@@H](C(=O)NCCOC)C4)nc32)cc1 [A248, (1R,3R)-3-[3-(4-ethoxy-phenyl)-3H-[1,2,3]triazolo[4,5-d]pyrimidin-5-ylamino]-cyclopentanecarboxylic acid (2-methoxy-ethyl)-amide]
